Reference: patent US20080233051A1, “Nanoparticles for two-photon activated photodynamic therapy and imaging” (priority 2006, published 2008)

Experiments:
[1] = Fluorescence quantum yield of BDSA in solution and as nanoaggregates; format: physicochemical
Source text: A representative transmission electron microscopic (TEM) image of the obtained nanoaggregates with a diameter of 44±7 nm is shown in FIG. 1a. […] The fluorescence quantum yield (Φf) of nanoaggregated state varies (0.1˜0.3), depending on the preparation conditions, including solvent, solvent/water ratio, and overall dye concentration, etc. […] No notable sign of H- or J-aggregation was observed, implying that molecular stacking is neither too close nor well ordered within the nanoaggregated structure. The fluorescence quenching in solution can be understood as dominant non-radiative decay, enhanced by free intramolecular torsional motion in solution, as in the case of flexible molecules showing viscosity-dependent fluorescence. Moreover, the weak, broad, and red-shifted emission of the solution, compared to that of the aggregate, implies the existence of large-amplitude relaxation in the excited state, such as twisted intramolecular charge transfer (TICT) which often acts as an intramolecular fluorescence quencher due to the nπ* characteristics. This is supported by our observation of intense and blue-shifted monomer fluorescence from a dilute solid solution of BDSA in PMMA film, where isolated molecules are frozen in the distorted form by rigid matrix, to prevent fluorescence quenching motion. The structural effect on aggregate formation and fluorescence was studied with a specific comparison between BDSA and the 1,4-phenylene analogue, BDSB, by varying the solvent/water ratio.

[2] = One- and two-photon excited fluorescence of HPPH/BDSA nanoparticles (intraparticle FRET); format: physicochemical; settings: free HPPH, self-aggregation
Protocol: To produce fluorescent domains of BDSA aggregates in the particle matrix, the following amounts were loaded to induce phase separation: 10, 20, and 30 wt % with respect to the total VTES amount. Fluorescence lifetime measurements were performed using Time correlated Single Photon Counting (TCSPC) technique. For this measurements, Ti:Sapphire laser providing 800 nm femtosecond pulses was used as excitation source and a SPC-830 TCSPC module (Becker & Hickl) with an H7422 (Hamamatsu) detector with a response time in the range of 250 ps was used for the measurements. […] For an estimation of the instrument response function (IRF), a dye with a known fluorescence lifetime (from Streak camera measurements), less than 50 ps was used. […] For quantitative comparison, the concentrations of the nanoparticle water dispersions were kept the same for all the sample sets. The dispersions of all examined HPPH-loaded nanoparticles had the absorbance of 0.07 at 665 nm.
When excited at 425 nm, the obtained fluorescence spectrum of the coencapsulating nanoparticles is a composite of the emission contributions from the donor BDSA aggregates and the acceptor HPPH. Compared with the fluorescence intensities of the nanoparticles containing the corresponding amount of each dye, BDSA emission is quenched by 70% and HPPH emission is amplified ca. 5 times, indicating the occurrence of FRET. […]

| Structure (SMILES) | Fluorescence quantum yield (Φf) ([1]; NMP solution) | Fluorescence intensification by aggregation ([1]; aggregate versus NMP solution) | Fluorescence change on aggregate formation ([1]; varying solvent/water ratio, THF/H2O, 5 μM (FIG. 2)) | Fluorescence in water dispersions [2] |
| --- | --- | --- | --- | --- |
| CN(CCOC(=O)c1ccccc1)c1ccc(C=Cc2ccc(C=Cc3c4ccccc4c(C=Cc4ccc(C=Cc5ccc(N(C)CCOC(=O)c6ccccc6)cc5)cc4)c4ccccc34)cc2)cc1 [BDSA, 9,10-Bis(4′-{4″-[N-methyl-N-(2-benzoyloxyethyl)amino]styryl}styryl)anthracene] | ~0.009 | more than 30 times | Enhanced fluorescence is seen |  |
| CCCCCCOC(C)C1=C(C)c2cc3nc(c4c5[nH]c(cc6[nH]c(cc1n2)c(C)c6CC)c(C)c5C(=O)C4)C(CCC(=O)O)C3C (stereo not shown) [HPPH, 2-devinyl-2-(1-hexyloxyethyl)pyropheophorbide] |  |  |  | completely quenched |
